What was measured:
ovariectomized rats = assay: Uterus growth test on ovariectomized rats (3-day treatment); format: in vivo, rat; set-up: unit not given beside the values; details: subcutaneously daily over 3 days
Method: An in-depth description of the experiment was published (K. H., Fritzemeir, Ch. Hegele-Hartung (1999), Handbook of Pharmacol., Oettel, Schillinger eds., 135/II, 21:1-94). Ovariectomized rats were treated 10 days after ovariectomy with various dosages of the test substance or reference substance. The treatment was carried out subcutaneously daily over 3 days. On day 4, the animals were sacrificed, and the uterus moist and dry weights were determined.

[1] = target: T1, estrogen receptor preparations of rat uteri (rat uterus cytosol; ERα predominates) (Rattus norvegicus, UniProt P06211); assay: Estrogen receptor binding, rat uterus cytosol (competition with 3H-estradiol); details: relative binding affinity, RBA of reference substance estradiol = 100
T1 construct: The preparation of rat uterus cytosol, and the receptor test with the ER containing cytosol; from tissue; host or cells: rat uterus cytosol
T1 sequence (P06211 1-600): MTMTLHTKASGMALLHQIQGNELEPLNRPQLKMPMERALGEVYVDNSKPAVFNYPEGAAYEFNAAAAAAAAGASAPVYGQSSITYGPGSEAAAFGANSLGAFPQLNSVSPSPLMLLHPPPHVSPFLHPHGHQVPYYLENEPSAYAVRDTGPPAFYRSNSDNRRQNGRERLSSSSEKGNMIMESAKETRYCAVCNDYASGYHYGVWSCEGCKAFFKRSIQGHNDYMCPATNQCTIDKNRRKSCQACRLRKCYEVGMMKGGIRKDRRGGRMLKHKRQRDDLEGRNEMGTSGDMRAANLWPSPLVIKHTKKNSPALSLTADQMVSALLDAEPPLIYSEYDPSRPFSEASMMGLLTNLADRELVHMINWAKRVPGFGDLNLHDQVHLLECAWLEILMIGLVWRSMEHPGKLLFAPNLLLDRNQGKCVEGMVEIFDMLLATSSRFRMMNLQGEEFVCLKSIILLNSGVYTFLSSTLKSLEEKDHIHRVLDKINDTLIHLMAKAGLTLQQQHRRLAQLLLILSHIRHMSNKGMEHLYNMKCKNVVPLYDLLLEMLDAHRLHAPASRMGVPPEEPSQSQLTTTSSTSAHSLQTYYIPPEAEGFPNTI
Method: (§1) This patent application describes novel structures for selective estrogens, which have in vitro dissociation with respect to binding to estrogen receptor preparations of the rat uterus and rat prostate. In this case, it is assumed that ERα predominates in the rat uteri over ERβ, while ERβ predominates in the rat prostates over ERα.
(§2) The binding affinity of the new selective estrogens was tested in competitive tests with use of 3H-estradiol as a ligand in estrogen receptor preparations of rat prostates and rat uteri. The preparation of the prostate cytosol and the estrogen receptor test was performed with the prostate cytosol, as described by Testas et al. (1981) (Testsas, J. et al., 1981, Endocrinology 109:1287-1289).
The preparation of rat uterus cytosol, and the receptor test with the ER containing cytosol were performed basically as by Stack and Gorski, 1985 (Stack, Gorski 1985, Endocrinology 117, 2024-2032) with some modifications as described in Fuhrmann et al. (1995) (Fuhrmann U. et al. 1995, Contraception 51:45-52).

[2] = tested on: estrogen receptor preparations of rat prostates (rat prostate cytosol; ERβ predominates); assay: Estrogen receptor binding, rat prostate cytosol (competition with 3H-estradiol); details: relative binding affinity, RBA of reference substance estradiol = 100
Method: as §1, §2

SMILES | Uterus Moist Weight [Mw ± SD] (ovariectomized rats; dosage 0.1 μg/kg) | Uterus Moist Weight [Mw ± SD] (ovariectomized rats; dosage 1 μg/kg) | Uterus Moist Weight [Mw ± SD] (ovariectomized rats; dosage 10 μg/kg) | Rat Uterus Cytosol (RBA*) [1] | Rat Prostate Cytosol (RBA*) [2]
C[C@]12CC[C@@H]3c4ccc(O)cc4CC[C@H]3[C@@H]1C[C@H]1OC(=O)C[C@]12O [3,17β-Dihydroxy-19-nor-17α-pregna-1,3,5(10)-triene-21,16α-lactone] | 23.7 ± 2.2 | 60.1 ± 7.4 | 95.9 ± 12.4 | 12.5 | <0.1
C[C@]12CC[C@@H]3c4ccc(O)cc4CC[C@H]3[C@@H]1CC[C@@H]2O [17β-Estradiol, reference compound] | 28.0 ± 2.0 | 71.9 ± 9.6 | 82.3 ± 11.3 | – | –

Source: patent publication US6670347B2, “19-nor-17α-pregna-1,3,5(10)-trien-17β-ols with a 21,16α-lactone ring” (Schering AG, priority 2000, dated 2003)
